Data taken from paper PMC8765048 (JCI Insight, 2022).
Read-outs that look alike come from different tables or passages of the source.

Tests used:
SARS-CoV-2 WA1 [1] = assay: microbe, parasite or virus in culture; assay type: cell-based; settings: Severe acute respiratory syndrome coronavirus 2, Caco-2, 96 h
SARS-CoV-2 [2] = assay: Combinatorial sangivamycin/remdesivir efficacy testing, Vero E6 cells; assay type: cell-based; settings: read-out: IC50 (nM), S:R by [Sangivamycin]
[3] = mice, cited from earlier work
[4] = tested on: Ebola virus RNA-directed RNA polymerase (RdRp) activity; settings: in vitro; cited from earlier work
[5] = tested on: SARS-CoV-2 B.1.1.7 (Alpha); assay: microbe, parasite or virus in culture; assay type: cell-based
[6] = tested on: SARS-CoV-2 B.1.427 (Epsilon); assay: microbe, parasite or virus in culture; assay type: cell-based
[7] = tested on: HepG2 (human hepatocarcinoma); assay: CellTox Green Cytotoxicity Assay; settings: ratio > 1 cytostatic, ≤ 1 cytotoxic
SARS-CoV-2 P.2 (Zeta) = assay: microbe, parasite or virus in culture; assay type: cell-based
[8] = CellTiter-Glo cell viability assay; assay type: cell-based; settings: human, HEK293T cells
[9] = CellTiter-Glo cell viability assay; assay type: cell-based; settings: human, HepG2 cells; HepG2, 72 h
SARS-CoV-2 [10] = assay: Combinatorial sangivamycin/remdesivir efficacy testing, Caco-2 cells; assay type: cell-based; settings: Severe acute respiratory syndrome coronavirus 2, Caco-2; read-out: IC50 (nM), S:R by [Sangivamycin]
SARS-CoV-2 [11] = assay: Combinatorial sangivamycin/remdesivir efficacy testing, Calu-3 cells; assay type: cell-based; settings: Severe acute respiratory syndrome coronavirus 2, Calu-3; read-out: IC50 (nM), S:R by [Sangivamycin]
Huh-7 cells = assay: Acute mitochondrial or glycolytic stress assay (Seahorse XF96e); assay type: cell-based, human
Text: Other important measures of cell viability are mitochondrial integrity, function, cardiotoxicity, and genotoxicity, since other nucleoside analogs may vary in their effect on these endpoints ([29], [30]). Dyes commonly used to assess mitochondrial integrity are MitoTracker Green (MTG), a mitochondrial stain mostly localized to mitochondria based on hydrophobicity, and N-alkyl acridine orange (NAO), which binds to mitochondrial cardiolipin. Untreated Huh-7 cells and Huh-7 cells treated for 5 days with 100 nM sangivamycin were stained with MTG and NAO and imaged by fluorescence microscopy. […] To more quantitatively assess the impact of sangivamycin on mitochondrial integrity, we evaluated the effect of sangivamycin on mitochondrial metabolic function as well as cytoplasmic glycolytic function. The XF96e Seahorse instrument was used to quantify the oxygen consumption rate (OCR) over time in untreated control and sangivamycin-treated Huh-7 cells. […] Standard metabolic endpoints quantified with or without sangivamycin included sequential treatment and washout of cell cultures with oligomycin (ATP synthase inhibitor), carbonyl cyanide 4-(trifluoromethoxy)phenylhydrazone (FCCP; a proton gradient uncoupler), and antimycin A + rotenone (complex I and III blockers) (Supplemental Figure 7). […]

Salmonella typhimurium = assay: AMES mutagenicity testing (Salmonella typhimurium reverse mutation assay); assay type: cell-based
Procedure: The standard AMES (Salmonella typhimurium reverse mutation assay, ref. [43]) was performed by Cyprotex to evaluate the mutagenic potentials of sangivamycin. Approximately 10 million bacteria were exposed in triplicate to sangivamycin (6 concentrations, 1 mg/mL high test concentration), a negative control (vehicle), and a positive control for 90 minutes in medium containing a low concentration of histidine (sufficient for about 2 doublings). The cultures were then diluted into indicator medium lacking histidine and dispensed into 48 wells of 384-well plates (microplate format). Plates were incubated for 48 hours at 37°C. In the microsuspension assay, cells that undergo a mutagenic reversion grow, resulting in a color change that is scored as positive wells. Wells with bacterial growth were counted and compared with those with vehicle control. A dose-dependent increase in the number of colonies of at least 2-fold over baseline (mean + SD of the vehicle control) indicated a positive response.

[12] = tested on: Vero E6 (grivet kidney epithelial); assay: CellTox Green Cytotoxicity Assay; settings: ratio > 1 cytostatic, ≤ 1 cytotoxic
SARS-CoV-2 WA1 [13] = assay: microbe, parasite or virus in culture; assay type: cell-based
[14] = Severe acute respiratory syndrome coronavirus 2, Vero C1008, 24 h
[15] = Severe acute respiratory syndrome coronavirus 2, Calu-3, 24 h

NC(=O)c1cn([C@@H]2O[C@H](CO)[C@@H](O)[C@H]2O)c2ncnc(N)c12 [Sangivamycin, sangivamycin]
IC50 (SARS-CoV-2 WA1 [1]): 14 ± 2 nM
IC90 (SARS-CoV-2 WA1 [1]): 63 ± 17 nM
IC50 (SARS-CoV-2 [2]; Severe acute respiratory syndrome coronavirus 2, Vero C1008): 34 nM
IC50 (SARS-CoV-2 [2]; listed as S:R 1:0): 34.3 nM
half-life in blood ([3]; 3H-labeled sangivamycin, i.p. 8 mg/kg): 50 h
drug-derived radioactivity accounted for in the urine ([3]; over a period of 12 days): 40%
effect of remdesivir and sangivamycin combined [4]: additive effect
SI (selectivity index, CC50/IC50) ([5]; B.1.1.7 (Alpha), Vero E6 cells): >39.0
IC50 [5, 14]: 15.4 nM
IC90 [5, 14]: 164 nM
SI (selectivity index, CC50/IC50) ([6]; B.1.427 (Epsilon), Calu-3 cells): >7.3
IC50 [6, 15]: 82.2 nM
IC90 [6, 15]: 341 nM
Ratio CellTox Green/CellTiter-Glo [7]: >2.82
SI (selectivity index, CC50/IC50) (SARS-CoV-2 P.2 (Zeta); P.2 (Zeta), Vero E6 cells): >20.1
IC50 (SARS-CoV-2 P.2 (Zeta); [14]): 29.8 nM
IC90 (SARS-CoV-2 P.2 (Zeta); [14]): 125 nM
CC50 at 72 h [8]: 885 nM
CC50 at 72 h [9]: 1770 nM
IC50 (SARS-CoV-2 [10]): 39 nM
IC50 (SARS-CoV-2 [11]): 69.6 nM
Acute effects on mitochondrial and glycolytic stress (Seahorse measurements) (Huh-7 cells; 0.05–5 μM): >5 µM
oxygen consumption rate (OCR) relative to untreated control cells (Huh-7 cells; up to 5 μM): did not significantly change the OCR
AMES genotoxicity test (Salmonella typhimurium; 1 mg/mL [3.2 mM] high test concentration): >1 mg/mL
bacterial mutagenicity (Salmonella typhimurium; up to 3.2 mM): no evidence of enhanced bacterial mutagenicity
Ratio CellTox Green/CellTiter-Glo [12]: >10.2
IC90 (SARS-CoV-2 WA1 [13]; Severe acute respiratory syndrome coronavirus 2, Vero C1008, 48 h): 64 ± 3 nM
IC50 (SARS-CoV-2 WA1 [13]; Severe acute respiratory syndrome coronavirus 2, Vero C1008, 48 h, read-out: IC50): 34 ± 1 nM
IC50 (SARS-CoV-2 WA1 [13]; Severe acute respiratory syndrome coronavirus 2, Vero C1008, read-out: average IC50): 52 ± 13 nM
SI (selectivity index, CC50/IC50) (SARS-CoV-2 WA1 [13]; WA1, Vero E6 cells): 14.4
